# ChEMBL document CHEMBL1145944, “Synthesis and biological evaluation of 3-(4-substituted-phenyl)-N-hydroxy-2-propenamides, a new class of histone deacetylase inhibitors” (J Med Chem, 2003)
# Tests used:
# Assay type in all cases: functional, cell-based
# MKN-45 = assay: Compound was tested for antiproliferative activity against human MKN45 cancer cell lines
# SK-BR-3 = assay: Compound was tested for antiproliferative activity against human SK-BR-3 cancer cell lines
# A549 = assay: Compound was tested for antiproliferative activity against human A549 cancer cell lines using MTT assay
SMILES,IC50 (MKN-45) [µM],IC50 (SK-BR-3) [µM],IC50 (A549) [µM]
O=C(/C=C/c1ccc(CNC(=O)c2ccc(N3CCN(Cc4cccnc4)CC3)cc2)cc1)NO,2.94,0.27,1.65
O=C(/C=C/c1ccc(CNC(=O)c2ccc(N3CCN(Cc4ccccn4)CC3)cc2)cc1)NO,38.6,3.19,12
O=C(/C=C/c1ccc(CNC(=O)c2ccc(N3CCN(Cc4ccncc4)CC3)cc2)cc1)NO,56.1,1.72,3.02
O=C(/C=C/C#Cc1ccc(NS(=O)(=O)c2ccccc2)cc1)NO [OXAMFLATIN],1.07,0.59,0.84
